Among the data in article PMC9919490, “Synthesis and Biological Evaluation of Novel Dispiro-Indolinones with Anticancer Activity” (Molecules, 2023) are IC50 values, retold here.

One may read the IC50 as the concentration at which inhibition is half-maximal.

What all share (format): cell-based
Holding throughout (conditions): 48 h

One data set deals with PC3 cells. The experiment in a line: MTT cytotoxicity assay, PC3 (p53 neg). The procedure: (§1) The synthesized compounds were tested for their ability to block the proliferation of the selected model cell lines: LNCaP (p53+), PC3 (p53-), HCT^wt (p53+), and HCT^−/− (p53-) cells. The assay was carried out using the standard MTT (3-(4,5-dimethylthiazol-2-yl)2,5-diphenyl tetrazolium bromide) assay based on the modified approach reported by Ferrari and colleagues. […] Differences in IC50 values against these cell lines were used to assess the selectivity of the compounds.
(§2) Model cell lines were purchased from the in stock collection of the N.N. Blokhin Russian Cancer Research Center (RAMS). Cells were accurately maintained in the recommended media, supplemented with 10% heat-inactivated FBS (Invitrogen) and 2 mmol/L L-glutamine (Invitrogen).
(§3) First, 4000 cells per well were plated out in 140 µL of DMEM (with 10% FBS) in 96-well plates and incubated in 5% CO2 for 24 h at 37 °C without treatment. […] The cells were treated for 48 h with […] (eight dilutions) concentrations of the substances (each in triplicate) or doxorubicin (0.3 nM–600 nM, eight dilutions) as a control substance. After the incubation, 15 µL of MTT solution in PBS (5 mg/mL) was added, and the cells were incubated for 2 h, followed by removal of the media and addition of 120 µL of DMSO. […] Cell survival rates were determined by the comparison of optical density with the corresponding untreated control cell culture. Dose-dependent curves and the corresponding IC50 values were calculated using “GraphPad Prism 6” software (GraphPad Software, Inc., San Diego, CA, USA).
On the technique in general: Formazan colour is commonly taken as a measure of viable cells.

Another data set has as its system LNCaP cells. The experiment in a line: MTT cytotoxicity assay, LNCaP (p53 pos). The procedure: as §1, §2, §3
In another data set the test system is HCT^wt cells. The experiment in a line: MTT cytotoxicity assay, HCT^wt (p53 pos). The method, then: as §1, §2, §3
A further data set relates to HCT^−/− cells. The experiment in a line: MTT cytotoxicity assay, HCT^−/− (p53 neg). The procedure: as §1, §2, §3

Regarding `C=CCN1C(=O)[C@]2(NC1=S)[C@@H](c1ccccn1)CN(C)[C@@]21C(=O)Nc2ccccc21` (racemic) [Compound 67], the IC50 in the data set with PC3 cells and in the data set with LNCaP cells was above 50 µM throughout.
With `CN1C[C@H](c2ccccn2)[C@]2(NC(=S)N(c3ccccc3)C2=O)[C@]12C(=O)Nc1ccc(Br)cc12` (racemic) [Compound 17], the IC50 in the data set with PC3 cells is above 100 µM; with LNCaP cells, above 100 µM; with HCT^wt cells, 5.6 ± 2.3 µM; in the data set with HCT^−/− cells it was 7.6 ± 3.2 µM.
With `CN1C[C@H](C2CCCCC2)[C@]2(NC(=S)N(c3ccccc3)C2=O)[C@]12C(=O)Nc1ccccc12` (racemic) [Compound 25], the IC50 in the data set on PC3 cells and in the data set with LNCaP cells was above 100 µM each time.
Consider `CN1C[C@H](c2ccc(Cl)cc2)[C@]2(NC(=S)N(c3ccc(O)cc3)C2=O)[C@]12C(=O)Nc1ccc(Cl)cc12` (racemic) [Compound 52], for which the IC50 with PC3 cells, with LNCaP cells, with HCT^wt cells and in the data set with HCT^−/− cells was above 100 µM each time.
For the compound `CN1C[C@H](c2ccc(Cl)cc2)[C@]2(NC(=S)N(c3ccc(F)cc3)C2=O)[C@]12C(=O)Nc1ccc(Br)cc12` (racemic) [Compound 40], the IC50 with PC3 cells, in the data set on LNCaP cells, in the data set with HCT^wt cells and with HCT^−/− cells was above 100 µM in each case.
`CN1C[C@H](c2ccc(Cl)cc2)[C@]2(NC(=S)N(c3ccccc3)C2=O)[C@]12C(=O)Nc1ccc(Cl)cc12` (racemic) [Compound 12]: the IC50 in the data set on PC3 cells, with LNCaP cells, with HCT^wt cells and with HCT^−/− cells was above 100 µM throughout.
With `CN1C[C@H](c2cccc(C=O)c2)[C@]2(NC(=S)N(c3ccccc3)C2=O)[C@]12C(=O)Nc1ccc(Cl)cc12` (racemic) [Compound 24], the 50% inhibitory concentration (IC50) with PC3 cells, in the data set with LNCaP cells, with HCT^wt cells and in the data set on HCT^−/− cells was above 100 µM each time.
For `COc1ccc(C2CN(C)C3(C(=O)Nc4ccc(Cl)cc43)C23NC(=S)N(c2ccc(Cl)cc2)C3=O)cc1OC` (stereo not drawn) [Compound 39, 1-(4-chlorophenyl)-4’-(3,4-dimethoxyphenyl)-1’-methyl-5’’’-chloro-2-thiooxodispiro[imidazolidine-4,3’-pyrrolidine-2’,3”-indoline]-2”,5-dione], the IC50 with PC3 cells, with LNCaP cells, in the data set on HCT^wt cells and with HCT^−/− cells was above 100 µM in each case.
Consider `CN1C[C@H](c2ccccc2Cl)[C@]2(NC(=S)N(c3ccc(O)cc3)C2=O)[C@]12C(=O)Nc1ccc(Cl)cc12` (racemic) [Compound 55], for which the IC50 in the data set on PC3 cells is 15.1 ± 1.2 µM; in the data set on LNCaP cells it was 7 ± 1 µM; with HCT^wt cells it was above 100 µM; in the data set with HCT^−/− cells, above 100 µM.
Regarding `CN1C[C@H](c2ccccc2)[C@]2(NC(=S)N(c3ccccc3)C2=O)[C@]12C(=O)Nc1ccc(Br)cc12` (racemic) [Compound 5], the concentration for half-maximal inhibition (IC50) with PC3 cells was determined as 4.6 ± 2.5 µM; in the data set with LNCaP cells it was 2.2 ± 0.8 µM; in the data set with HCT^wt cells, 10.5 ± 2.3 µM; in the data set with HCT^−/− cells it was 12.5 ± 3.2 µM.
In the same order, the values of `CN1C[C@H](c2cccc(Cl)c2)[C@]2(NC(=S)N(c3ccccc3)C2=O)[C@]12C(=O)Nc1ccc(Br)cc12` (racemic) [Compound 15] are above 100 µM, above 100 µM, above 100 µM and above 100 µM.
In the same order, the values of `CN1C[C@H](c2ccc(Cl)cc2)[C@]2(NC(=S)N(c3ccc(Cl)cc3)C2=O)[C@]12C(=O)Nc1ccc(Cl)cc12` (racemic) [Compound 37] are above 100 µM, above 100 µM, above 100 µM and above 100 µM.
On to `CN1C[C@H](c2ccccc2Cl)[C@]2(NC(=S)N(c3ccccc3)C2=O)[C@]12C(=O)Nc1ccc(Br)cc12` (racemic) [Compound 10], for which the IC50 with PC3 cells and in the data set with LNCaP cells was above 100 µM in each case.
`CN1C[C@H](c2ccncc2)[C@]2(NC(=S)N(c3ccccc3)C2=O)[C@]12C(=O)Nc1ccccc12` (racemic) [Compound 19]: the IC50 with PC3 cells, with LNCaP cells, in the data set on HCT^wt cells and in the data set with HCT^−/− cells was above 100 µM throughout.
Regarding `CN1C[C@H](c2ccc(Cl)c(Cl)c2)[C@]2(NC(=S)N(c3ccccc3)C2=O)[C@]12C(=O)Nc1ccc(Br)cc12` (racemic) [Compound 16], the IC50 in the data set on PC3 cells was above 100 µM; in the data set with LNCaP cells it was above 100 µM; in the data set with HCT^wt cells it was 7.6 ± 1.6 µM; in the data set on HCT^−/− cells it was 8.8 ± 3.5 µM.
Regarding `CC(c1ccccc1)N1C(=O)C2(NC1=S)C(c1ccccc1Cl)CN(C)C21C(=O)Nc2ccc(Cl)cc21` (mixture of isomers) [Compound 64], the IC50 is above 100 µM with PC3 cells, above 100 µM in the data set with LNCaP cells, 24 ± 6.7 µM in the data set with HCT^wt cells and above 100 µM in the data set with HCT^−/− cells.
`CCOc1ccc(N2C(=O)[C@]3(NC2=S)[C@@H](c2ccc(Cl)cc2)CN(C)[C@@]32C(=O)Nc3ccccc32)cc1` (racemic) [Compound 28]: the IC50 in the data set on PC3 cells, in the data set with LNCaP cells, with HCT^wt cells and with HCT^−/− cells was above 100 µM throughout.
On to `COc1ccc([C@H]2CN(C)[C@@]3(C(=O)Nc4ccc(Br)cc43)[C@@]23NC(=S)N(c2ccc(F)c(Cl)c2)C3=O)cc1OC` (racemic) [Compound 45], for which the IC50 in the data set on PC3 cells and in the data set with LNCaP cells was above 100 µM throughout.
With `CN1CC(c2ccc(Cl)cc2)C2(NC(=S)N(c3ccc(O)cc3)C2=O)C12C(=O)Nc1ccccc12` (stereo not drawn) [Compound 50, 1-(4-hydroxyphenyl)-4’-(4-chlorophenyl)-1’-methyl-2-thiooxodispiro[imidazolidine-4,3’-pyrrolidine-2’,3”-indoline]-2”,5-dione], the concentration for half-maximal inhibition (IC50) in the data set with PC3 cells was 4.65 ± 2.3 µM; with LNCaP cells, 18 ± 4.7 µM; with HCT^wt cells, 6.9 ± 3.1 µM; with HCT^−/− cells, above 100 µM.
In the same order, the values of `COc1ccc(N2C(=O)[C@]3(NC2=S)[C@@H](c2cccc(Cl)c2)CN(C)[C@@]32C(=O)Nc3ccc(Br)cc32)cc1` (racemic) [Compound 33] are above 100 µM, above 100 µM, above 100 µM and above 100 µM.
With `CN1C[C@H](c2ccccc2Cl)[C@]2(NC(=S)N(c3ccccc3)C2=O)[C@]12C(=O)Nc1ccc(Cl)cc12` (racemic) [Compound 11], the IC50 in the data set on PC3 cells, in the data set on LNCaP cells, in the data set with HCT^wt cells and in the data set with HCT^−/− cells was above 100 µM in each case.
`COc1ccc([C@H]2CN(C)[C@@]3(C(=O)Nc4ccccc43)[C@@]23NC(=S)N(c2ccc(F)c(Cl)c2)C3=O)cc1OC` (racemic) [Compound 44]: the IC50 in the data set with PC3 cells was 10.2 ± 2.3 µM; in the data set on LNCaP cells, 8.6 ± 1.8 µM; in the data set with HCT^wt cells it was 35 ± 16.2 µM; with HCT^−/− cells it was above 100 µM.
As for `CCOc1ccc([C@H]2CN(C)[C@@]3(C(=O)Nc4ccc(Br)cc43)[C@@]23NC(=S)N(c2ccc(F)cc2)C3=O)cc1` (racemic) [Compound 61], the IC50 in the data set on PC3 cells and in the data set on LNCaP cells was above 100 µM each time.
As for `CN1C[C@H](C2CCCCC2)[C@]2(NC(=S)N(c3ccccc3)C2=O)[C@]12C(=O)Nc1ccc(Br)cc12` (racemic) [Compound 26], the IC50 with PC3 cells and in the data set on LNCaP cells was above 100 µM throughout.
With `CC(c1ccccc1)N1C(=O)C2(NC1=S)C(c1cccc(Cl)c1)CN(C)C21C(=O)Nc2ccc(Br)cc21` (mixture of isomers) [Compound 63], the IC50 with PC3 cells was 8.8 ± 3.1 µM; in the data set on LNCaP cells, 3.4 ± 1.5 µM; with HCT^wt cells it was 8 ± 2.5 µM; in the data set on HCT^−/− cells, above 100 µM.
For `CN1C[C@H](c2ccccn2)[C@]2(NC(=S)N(c3ccccc3)C2=O)[C@]12C(=O)Nc1ccc(Cl)cc12` (racemic) [Compound 18], the IC50 is 8.2 ± 3.5 µM in the data set on PC3 cells, 2.1 ± 0.3 µM in the data set on LNCaP cells, 60.1 ± 8.6 µM with HCT^wt cells and above 100 µM in the data set on HCT^−/− cells.
As to `CCOc1ccc([C@H]2CN(C)[C@@]3(C(=O)Nc4ccccc43)[C@@]23NC(=S)N(c2ccc(F)cc2)C3=O)cc1` (racemic) [Compound 60], the IC50 with PC3 cells and in the data set with LNCaP cells was above 100 µM in each case.
On to `COc1ccc(N2C(=O)[C@]3(NC2=S)[C@@H](c2cccc(Cl)c2)CN(C)[C@@]32C(=O)Nc3ccccc32)cc1Cl` (racemic) [Compound 58], for which the IC50 in the data set with PC3 cells and in the data set with LNCaP cells was above 100 µM each time.
As for `C=CCN1C(=O)[C@]2(NC1=S)[C@@H](c1cccc(Cl)c1)CN(C)[C@@]21C(=O)Nc2ccccc21` (racemic) [Compound 68], the IC50 with PC3 cells and in the data set with LNCaP cells was above 50 µM in each case.
Regarding `COc1ccc(N2C(=O)[C@]3(NC2=S)[C@@H](c2cccc(Cl)c2)CN(C)[C@@]32C(=O)Nc3ccc(Br)cc32)cc1Cl` (racemic) [Compound 59], the IC50 in the data set with PC3 cells and in the data set on LNCaP cells was above 50 µM in each case.
In the case of `CN1C[C@H](c2cccc(Cl)c2)[C@]2(NC(=S)N(c3ccccc3)C2=O)[C@]12C(=O)Nc1ccccc12` (racemic) [Compound 14], the IC50 in the data set with PC3 cells and in the data set with LNCaP cells was above 100 µM throughout.
